System: acute GVHD mice
Assay: Mouse model of acute graft-versus-host disease
Type: in vivo, BALB/c mice
Settings: 5 mg/kg/d intravenously; for pathological changes of liver: 2 weeks after transplantation, hematoxylin-eosin; for clinical symptom score (GVHD): 11th day after transplantation, acute GVHD group 7.48±0.77; for survival rate of mice: Kaplan-Meier, three weeks after transplantation, acute GVHD group 12.13%
Protocol: Preparation of bone marrow cells: the donor mice were sacrificed by cervical dislocation, soaked in 75% ethanol for 5 minutes, and the two femurs and tibia of the mice were taken out under sterile conditions in the ultra-clean table, and placed in RPMI1640 medium containing 2% fetal bovine serum. Rinsed the bone marrow cavity with RPMI1640 culture medium, took out the bone marrow cells, blew them into the bone marrow suspension with sterile washing tube, filtered them with a 200 mesh filter, centrifuged for 10 min at 1500 r/min, collected the cell precipitates, and added physiological saline for resuspension. In addition, took a small amount of cell suspension and counted the number of nucleated cells after removing the red blood cells from the red blood cell lysate. And adjusted the concentration of nucleated cells in bone marrow suspension to 5×1010 L-1.
Preparation of spleen mononuclear cells: cut the spleen envelope aseptically, put it on a 200-mesh filter screen, soaked it in RPMI1640 medium containing 2% fetal bovine serum by volume, gently grinded the spleen with the handle of a sterile syringe, washed the filter screen several times with the culture medium, collected the filtered spleen cell suspension, centrifuged it at 1500 r/min for 10 min, and collected the spleen cell precipitation. After PBS resuspension, it was blown into a single cell suspension, gently placed on the upper layer of mouse spleen lymphocyte separation solution, centrifuged at 1800 r/min for 20 min, and white membrane cells were collected. PBS was washed twice. After cell count, the cell density was adjusted to 5×1010 L-1, and put in a 4° C. refrigerator for use.
C57BL/6 mice were used as bone marrow transplantation donors and BABL/c mice as recipients. BABL/c mice were randomly divided into the control group, model group, and CLY treatment group (each group was injected with 5 mg/kg/d compound CLY-1, CLY-2, or CLY-8 intravenously) according to the number of body weight, with 6 mice in each group. One week before transplantation, BALB/c mice were fed sterile acidified water containing 200 mg/L gentamicin, and mice were given 8.5 Gy whole-body irradiation (cesium source) within 24 hours before transplantation. Model group and CLY-1 group, CLY-2 group, and CLY-8 group were injected with C57BL/6 mouse bone marrow nucleated cells (including cell 1×107) and spleen mononuclear cells (including cell 5×106) 0.5 mL of mixed solution was used to establish acute GVHD model in mice, and 0.5 mL of normal saline was infused into the tail vein of BABL/c mice in the control group. CLY-1 group, CLY-2 group, and CLY-8 group were injected with CLY compound solution of 5 mg/kg/d intravenously, and the other groups were injected with saline of 5 mg/kg/d.
1.3.1 GVHD symptom score of mice: observed the general conditions of mice every day after transplantation, including body mass, fur, posture, activity, diarrhea, and mental state, and determined whether the mice had acute GVHD. According to the clinical GVHD symptom scoring standard, the clinical GVHD symptoms of mice in each group were scored 11 days after transplantation.
1.3.2 Analysis of mouse survival time: collected the survival data of mice in each group three weeks after transplantation, drew the survival curve by the Kaplan-Meier method, and compared the differences between the survival rates of mice in each group by Log-rank analysis method.
1.3.3 Histopathological examination: two weeks after transplantation, three mice with GVHD were taken from each group, and the back skin tissue, liver, and small intestine tissue were taken. 40 g/L paraformaldehyde was fixed, paraffin was fixed and embedded, hematoxylin-eosin staining was performed, and the pathological changes of each tissue were observed under the light microscope.

SMILES | pathological changes of liver | clinical symptom score (GVHD) | survival rate of mice
O=C(c1ccc(-n2nnc3cccnc32)cc1)N(c1ncccc1Cl)[C@@H]1CCNC1 [CLY-8, (R)-4-(3H-[1,2,3]triazolo[4,5-b]pyridin-3-yl)-N-(3-chloropyridin-2-yl)-N-(pyrrolidin-3-yl)benzamide] | only small necrotic lesions | 4.56±0.39 | 63.48%
CCN1CCC[C@@H](N(C(=O)c2ccc(-n3nnc4cccnc43)cc2)c2ncccc2Cl)C1 [CLY-2, (R)-4-(3H-[1,2,3]triazolo[4,5-b]pyridin-3-yl)-N-(3-chloropyridin-2-yl)-N-(1-ethylpiperidin-3-yl)benzamide] | only small necrotic lesions | 4.68±0.42 | 58.79%
CN1CCC[C@@H](N(C(=O)c2ccc(-n3nnc4cccnc43)cc2)c2ncccc2Cl)C1 [CLY-1, (R)-4-(3H-[1,2,3]triazolo[4,5-b]pyridin-3-yl)-N-(3-chloropyridin-2-yl)-N-(1-methylpiperidin-3-yl)benzamide] | only small necrotic lesions | 5.28±0.53 | 61.26%

Source: patent US20240300945A1, “CLY SERIES COMPOUND, PREPARATION METHOD THEREFOR AND USE THEREOF IN PREPARATION OF DRUGS” (NANJING WELLBEST PHARMACEUTICAL CO., LTD, priority 2021, published 2024)
